The test system of one data set is CYP2C-2. Nature of the data set: IC50-shift experiment, CYP2C-2 in RLMs. The note with it: for IC50 at 30 min: losartan 15 μM. The data set is classed as in vitro ADME, rat.
Data set [1] has as its system CYP2C-3. Nature of the data set: IC50-shift experiment, CYP2C-3 in RLMs. It counts as in vitro ADME. As to conditions: rat, rat liver microsomes, probe mephenytoin; for IC50 at 30 min: mephenytoin 400 μM. The protocol:
(§1) The components of the incubation system were as follows: 0.20 mg/mL HLMs or 0.20 mg/mL RLMs, 0.1 M Tris-HCl, vortioxetine, and the probe substrates of each enzyme. In the study of Km’s (Michaelis–Menten constant) experiment, midazolam (1, 2, 5, 10, 20, 50 and 100 μM in HLMs and RLMs) corresponded to CYP3A4/3A; bupropion (10, 20, 50, 100, 200, 500, 1,000 and 2000 μM in HLMs; 1, 2, 5, 10, 20, 50, 100 and 200 μM in RLMs) corresponded to CYP2B6/2B; amodiaquine (5, 10, 20, 50, 100 and 200 μM in HLMs; 10, 20, 50, 100, 200, 500 μM in RLMs) corresponded to CYP2C8/CYP2C-1; losartan (1, 2, 5, 10, 20, 50, 100, 200 μM in HLMs; 10, 20, 50, 100, 200, 500 and 1,000 μM in RLMs) corresponded to CYP2C9/CYP2C-2; mephenytoin (20, 50, 100, 200, 500 and 1,000 μM in HLMs; 5, 10, 20, 50, 100, 200, 500 and 1,000 μM in RLMs) corresponded to CYP2C19/CYP2C-3; and dextromethorphan (1, 2, 5, 10, 20, 50 and 100 μM in HLMs and RLMs) corresponded to CYP2D6/CYP2D. After 5.0 min of preincubation in the shaking water bath, the reaction was started with the addition of 1.0 mM NADPH. The incubated temperature at 37°C for 30 min. After the incubation, the enzyme reaction was stopped by cooling at −80°C, and 200 μL of acetonitrile and 20 μL of internal standard diazepam (200 ng/mL) were added for protein precipitation. […]
IC50-shift was used to investigate whether the drug produced time-dependent inhibition (TDI) of the enzyme. […] During the experiment, the individual substrates midazolam (4 μM), bupropion (40 μM), amodiaquine (3 μM), losartan (8 μM), mephenytoin (90 μM), and dextromethorphan (10 μM) were determined with vortioxetine IC50-shift in HLMs. […]
(§2) All experiments results were detected by UPLC-MS/MS, which equipped with a Waters Acquity UPLC system (Milford, MA, United States) and a Waters Xevo TQ-S triple quadrupole tandem mass spectrometer with an electrospray ionization source (Milford, MA, United States). […]
(§3) IC50 values and enzyme kinetic parameters were calculated by Graphpad Prism 6.0 (GraphPad software Inc., CA, United States). […] Data for each experiment were expressed as mean ± SD (n = 3).

The test system of data set [2] is CYP2C-3. Nature of the data set: Reversible inhibition kinetics (Lineweaver-Burk), CYP2C-3 in RLMs. It counts as in vitro ADME, rat. Here is the method:
(§4) The components of the incubation system were as follows: 0.20 mg/mL HLMs or 0.20 mg/mL RLMs, 0.1 M Tris-HCl, vortioxetine, and the probe substrates of each enzyme. In the study of Km’s (Michaelis–Menten constant) experiment, midazolam (1, 2, 5, 10, 20, 50 and 100 μM in HLMs and RLMs) corresponded to CYP3A4/3A; bupropion (10, 20, 50, 100, 200, 500, 1,000 and 2000 μM in HLMs; 1, 2, 5, 10, 20, 50, 100 and 200 μM in RLMs) corresponded to CYP2B6/2B; amodiaquine (5, 10, 20, 50, 100 and 200 μM in HLMs; 10, 20, 50, 100, 200, 500 μM in RLMs) corresponded to CYP2C8/CYP2C-1; losartan (1, 2, 5, 10, 20, 50, 100, 200 μM in HLMs; 10, 20, 50, 100, 200, 500 and 1,000 μM in RLMs) corresponded to CYP2C9/CYP2C-2; mephenytoin (20, 50, 100, 200, 500 and 1,000 μM in HLMs; 5, 10, 20, 50, 100, 200, 500 and 1,000 μM in RLMs) corresponded to CYP2C19/CYP2C-3; and dextromethorphan (1, 2, 5, 10, 20, 50 and 100 μM in HLMs and RLMs) corresponded to CYP2D6/CYP2D. After 5.0 min of preincubation in the shaking water bath, the reaction was started with the addition of 1.0 mM NADPH. The incubated temperature at 37°C for 30 min. After the incubation, the enzyme reaction was stopped by cooling at −80°C, and 200 μL of acetonitrile and 20 μL of internal standard diazepam (200 ng/mL) were added for protein precipitation. The solution was fully vortexed and centrifuged at 13,000 × rpm for 10 min, and the supernatant was collected for data analysis by UPLC-MS/MS.
The inhibitory mechanism of the inhibitor on the enzyme was generally used by different concentrations of the inhibitor against different concentrations of the probe substrate. The concentrations of the inhibitor and the concentrations of probe substrates in the experiment were estimated based on IC50 and Km values, respectively.
In RLMs, the concentrations of the substrates midazolam and dextromethorphan were 0.8, 1.6, 3.5, 7 μM and 5, 10, 20, 40 μM, respectively, vortioxetine concentrations were 4, 8, 16, 32 μM. The concentrations of mephenytoin and amodiaquine were 100, 200, 400, 800 μM and 5, 10, 20, 40 μM, respectively, vortioxetine concentrations were 5, 10, 20, 40 μM. The losartan concentrations were 4, 8, 15, 30 μM, corresponding to vortioxetine concentrations of 0.08, 0.15, 0.3, 0.6 μM. […]
as §2, §3

For data set [3] the following is noted: no reference given; cited from earlier work.
A further data set deals with CYP2C9 (Homo sapiens, UniProt P11712). Nature of the data set: IC50 of vortioxetine on CYP2C9 (losartan) in HLMs. It counts as in vitro ADME. Further details: 0.20 mg/mL HLMs; from tissue; host or cells: human liver microsomes. The protocol:
as §1, with “CYP2D6/CYP2D.” for “CYP2D6/CYP2D. After 5.0 min of preincubation in the shaking water bath, the reaction was started with the addition of 1.0 mM NADPH. The incubated temperature at 37°C for 30 min. After the incubation, the enzyme reaction was stopped by cooling at −80°C, and 200 μL of acetonitrile and 20 μL of internal standard diazepam (200 ng/mL) were added for protein precipitation.”
as §2, §3

For the next data set, the target named is CYP2C19 (Homo sapiens, UniProt P33261). Description: IC50-shift experiment, CYP2C19 in HLMs. The data set is classed as in vitro ADME. As to conditions: for IC50: mephenytoin 90 μM. Details: 0.20 mg/mL HLMs or 0.20 mg/mL RLMs; from tissue; host or cells: human liver microsomes. The protocol:
as §4
IC50-shift was used to investigate whether the drug produced time-dependent inhibition (TDI) of the enzyme. […] The above mixture was then incubated for another 30 min. During the experiment, the individual substrates midazolam (4 μM), bupropion (40 μM), amodiaquine (3 μM), losartan (8 μM), mephenytoin (90 μM), and dextromethorphan (10 μM) were determined with vortioxetine IC50-shift in HLMs. […] Other experimental conditions were the same as above.
All experiments results were detected by UPLC-MS/MS, which equipped with a Waters Acquity UPLC system (Milford, MA, United States) and a Waters Xevo TQ-S triple quadrupole tandem mass spectrometer with an electrospray ionization source (Milford, MA, United States). The chromatographic separation was performed on a Waters ACQUITY UPLC BEH C18 column (2.1 × 50 mm, 1.7 μm, Waters Corp.) at 40°C. The mobile phase was consisted of acetonitrile (A) and 0.1% formic acid in water (B). The gradient elution at a flow rate of 0.4 mL/min was conducted as follows: 0–0.5 min, 10% A; 0.5–1.0 min, 10%–90% A; 1.0–2.0 min, 90% A; 2.0–2.1 min, 90%–10% A, and 2.1–3.0 min, 10% A. The relevant analysis parameters were shown in Table 1.
as §3

The mark [4] stands for this setting: preincubation with NADPH vs without.

Read-outs that look alike come from different tables or passages of the source. A value given as a limit tells only on which side of the number the result lay.

CYP2C19, sequence (P33261 whole entry): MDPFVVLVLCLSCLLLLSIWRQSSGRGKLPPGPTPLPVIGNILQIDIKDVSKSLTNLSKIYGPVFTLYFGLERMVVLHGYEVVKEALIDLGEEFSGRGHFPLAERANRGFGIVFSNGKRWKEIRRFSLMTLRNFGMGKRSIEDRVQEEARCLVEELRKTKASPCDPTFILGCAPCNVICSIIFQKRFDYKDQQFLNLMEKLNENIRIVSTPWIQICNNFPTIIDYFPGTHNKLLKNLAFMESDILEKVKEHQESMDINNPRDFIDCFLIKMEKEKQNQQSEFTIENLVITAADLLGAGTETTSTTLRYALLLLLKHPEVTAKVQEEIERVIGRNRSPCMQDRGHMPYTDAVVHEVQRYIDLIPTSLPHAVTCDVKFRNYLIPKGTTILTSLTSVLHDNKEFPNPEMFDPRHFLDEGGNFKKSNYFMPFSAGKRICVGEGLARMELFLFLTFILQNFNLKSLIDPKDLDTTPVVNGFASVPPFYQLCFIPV
CYP2C9, sequence (P11712 whole entry): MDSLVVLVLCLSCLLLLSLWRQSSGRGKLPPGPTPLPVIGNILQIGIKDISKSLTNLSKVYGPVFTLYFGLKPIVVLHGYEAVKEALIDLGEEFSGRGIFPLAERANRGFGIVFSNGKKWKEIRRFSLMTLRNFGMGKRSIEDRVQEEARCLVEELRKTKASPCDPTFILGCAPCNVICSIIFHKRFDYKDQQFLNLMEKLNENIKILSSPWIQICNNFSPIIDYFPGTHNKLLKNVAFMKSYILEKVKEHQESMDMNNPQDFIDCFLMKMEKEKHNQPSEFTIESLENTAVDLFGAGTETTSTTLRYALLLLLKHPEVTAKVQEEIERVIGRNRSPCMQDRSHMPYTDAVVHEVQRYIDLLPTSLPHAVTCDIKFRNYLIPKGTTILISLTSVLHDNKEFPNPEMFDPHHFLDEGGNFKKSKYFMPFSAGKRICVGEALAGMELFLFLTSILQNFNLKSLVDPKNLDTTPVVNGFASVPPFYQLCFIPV

What is called IC50 is the concentration needed to halve the response being measured. By Ki is commonly meant a dissociation constant, usually derived from enzyme kinetics or from competition with a known ligand. A high value points to weaker binding. With `Cc1ccc(Sc2ccccc2N2CCNCC2)c(C)c1` [vortioxetine], the “activity of CYP2C-2 with the NADPH” value in the data set with CYP2C-2 (setting [4]) is on record as “significantly increased”. Also, the IC50 at 30 min with CYP2C-2 (rat, rat liver microsomes, probe losartan, CYP2C-2, 30 min preincubation with 1.0 mM NADPH) came out at 37.5 µM; with CYP2C-2 (rat, rat liver microsomes, probe losartan, CYP2C-2, 30 min preincubation without NADPH), 8.97 µM; in the data set on CYP2C-3 [1] (30 min preincubation with 1.0 mM NADPH) it was 5.21 µM; with CYP2C-3 [1] (30 min preincubation without NADPH), 24.6 µM. Besides, the IC50 shift at 30 min with CYP2C-2 (rat, rat liver microsomes, probe losartan, CYP2C-2, ratio IC50 (−) NADPH to IC50 (+) NADPH, read-out: IC50 fold shift) is 0.24; in the data set on CYP2C-3 [1] (ratio IC50 (−) NADPH to IC50 (+) NADPH, read-out: IC50 fold shift), 4.72; on CYP2C19 (human, human liver microsomes, probe mephenytoin (90 μM), CYP2C19, ratio IC50 (−) NADPH to IC50 (+) NADPH, read-out: IC50 fold shift), 2.08. In the data set on CYP2C-3 [2] (mephenytoin), this compound had a α of 2.97. The Inhibition type entry in the data set on CYP2C-3 [2] (mephenytoin, Lineweaver-Burk plot) is on record as “noncompetitive inhibition”. Further, the αKi in the data set with CYP2C-3 [2] (mephenytoin, secondary plot of y-intercepts) amounted to 12.54 µM. Besides, the affinity in the data set with CYP2C-3 [2] (rat, rat liver microsomes, probe mephenytoin) corresponds to a Ki at 30 min of 4.23 µM. In addition, the “plasma protein (binding)” value in data set [3] is listed as 99%. Further, the IC50 was 23 µM on CYP2C9 (HLMs 0.20 mg/mL, losartan at Km, 37°C, 30 min, read-out: IC50); more than 10 µM on CYP2C9 (inhibitory effect (strength judged by IC50), HLMs); 2.83 µM at CYP2C19 (CYP2C19, 30 min preincubation with 1.0 mM NADPH); 5.88 µM on CYP2C19 (CYP2C19, 30 min preincubation without NADPH). The “activity of CYP2C19 with the NADPH” value on CYP2C19 (setting [4]) is recorded as “significantly reduced”.

The record behind these values is article PMC10544575, “Inhibitory mechanism of vortioxetine on CYP450 enzymes in human and rat liver microsomes” (Frontiers in Pharmacology, 2023).
